Earlier results, collected in patent publication US6339063B1, “9a-azalides as veterinary antimicrobial agents” (Merck & Co., Inc., priority 1997, dated 2002).

System: Pasteurella multocida
Conditions: as said in U.S. Pat. Nos. 4,474,768, 4,464,527 and 4,526,889

Compound | activity against Pasteurella multocida in vitro
CC[C@H]1OC(=O)[C@H](C)[C@@H](O[C@H]2C[C@@](C)(OC)[C@@H](O)[C@H](C)O2)[C@H](C)[C@@H](O[C@@H]2O[C@H](C)C[C@H](N(C)C)[C@H]2O)[C@](C)(O)C[C@@H](C)CN(C)[C@H](C)[C@@H](O)[C@]1(C)O [azithromycin, 9-deoxo-9a-aza-9a-methyl-9a-homoerythromycin A] | active
CCC1OC(=O)C(C)C(OC2CC(C)(OC)C(O)C(C)O2)C(C)C(OC2OC(C)CC(N(C)C)C2O)C(C)(O)CC(C)CN(C)C(C)C(O)C1(C)O (stereo not drawn) [4″-epi-azithromycin] | active
